This note sets out measurements from US9409952B2, “Peptide-compound cyclization method” (Chugai Seiyaku Kabushiki Kaisha, priority 2011, dated 2016).

Positions of bridges follow the written chain, without caps; N, C: chain ends. Non-standard residues stand in square brackets, D forms with d. Residues, ends and D or L forms follow the SMILES beside them. *: point of attachment. NEtPhe = CCN[C@@H](Cc1ccccc1)C(=O)O; NMeF = CN[C@@H](Cc1ccccc1)C(=O)O; NMeI = CC[C@H](C)[C@H](NC)C(=O)O; hPhe = N[C@@H](CCc1ccccc1)C(=O)O; AllylGly = C=CC[C@H](N)C(=O)O; NMeL = CN[C@@H](CC(C)C)C(=O)O; Ala(CN) = N#CC[C@H](N)C(=O)O; NMeV = CN[C@H](C(=O)O)C(C)C; NMeA = CN[C@@H](C)C(=O)O; Piperidide = C1CCN(*)CC1; dNMeA = CN[C@H](C)C(=O)O; NPrGly = CCCNCC(=O)O; Sar = CNCC(=O)O; tBu = CC(C)(C)*

The first data set can be described thus: Metabolic stability in human hepatic microsome. In kind it is in vitro ADME. Conditions: human, microsomes, pH 7.4, CL NADPH(+).
`CCN1C(=O)[C@H](Cc2ccccc2)N(C)C(=O)CN(C)C(=O)[C@H]([C@@H](C)O)NC(=O)[C@H](C)N(C)C(=O)C[C@@H](C(=O)N2CCCCC2)NC(=O)[C@H](C(C)C)N(C)C(=O)[C@H](C)NC(=O)[C@H](CC(C)C)N(C)C(=O)[C@@H]2CCCN2C(=O)[C@H](CC(C)C)N(C)C(=O)[C@@H]1Cc1ccccc1` [DP-632] ([NMeA]T[Sar][NMeF][NEtPhe][NMeL]P[NMeL]A[NMeV]D-Piperidide; lactam N-11) gave a microsomal CLint at 1 uM of 41 µL/min/mg.

Still in this data set, the particulars now being: microsomes, pH 7.4; human hepatic microsome, NADPH(+); read-out: CL NADPH(+).
In the case of `C=CC[C@@H]1NC(=O)[C@H](CC(C)C)N(C)C(=O)[C@H](CC(C)C)N(C)C(=O)CNC(=O)[C@H](Cc2ccccc2)N(C)C(=O)[C@H]([C@@H](C)O)NC(=O)[C@H](CC(C)C)N(C)C(=O)[C@H](Cc2ccccc2)NC(=O)[C@H](C)NC(=O)C[C@@H](C(=O)N(C)[C@@H](Cc2ccccc2)C(=O)N[C@@H](C)C(=O)N2CCCCC2)NC1=O` [DP-611] (AF[NMeL]T[NMeF]G[NMeL][NMeL][AllylGly]D[NMeF]A-Piperidide; lactam N-10), the microsomal CLint at 1 uM stood at 20 µL/min/mg.
Same read-out and setting: as for `C=CC[C@@H]1NC(=O)[C@H](Cc2ccccc2)N(C)C(=O)[C@H]([C@@H](C)O)NC(=O)[C@H](CC(C)C)N(C)C(=O)[C@H](Cc2ccccc2)NC(=O)[C@H](C)NC(=O)C[C@@H](C(=O)N(C)[C@@H](Cc2ccccc2)C(=O)N[C@@H](C)C(=O)N2CCCCC2)NC(=O)[C@H](CC(C)C)NC(=O)[C@H](CC(C)C)N(C)C(=O)[C@H](C)N(C)C1=O` [DP-612] (AF[NMeL]T[NMeF][AllylGly][NMeA][NMeL]LD[NMeF]A-Piperidide; lactam N-10), the figure is 155 µL/min/mg; as for `CC(C)C[C@H]1C(=O)N(C)[C@@H](CC(C)C)C(=O)N[C@@H](C)C(=O)N[C@H](C(=O)N(C)[C@@H](Cc2ccccc2)C(=O)N[C@@H](C)C(=O)N2CCCCC2)CC(=O)N[C@@H](C)C(=O)N[C@@H](Cc2ccccc2)C(=O)N(C)[C@@H](CC(C)C)C(=O)N[C@@H](CC#N)C(=O)N(C)[C@@H](Cc2ccccc2)C(=O)N[C@@H](C)C(=O)N1C` [DP-613] (AF[NMeL][Ala(CN)][NMeF]A[NMeL][NMeL]AD[NMeF]A-Piperidide; lactam N-10), 37 µL/min/mg.
On the same count and under the same terms, then `CC(C)C[C@@H]1NC(=O)C[C@@H](C(=O)N2CCCCC2)NC(=O)[C@H]([C@@H](C)O)NC(=O)[C@H](C(C)C)N(C)C(=O)CN(C)C(=O)[C@H](CC(C)C)N(C)C(=O)[C@H](Cc2ccccc2)NC(=O)[C@H](Cc2ccccc2)N(C)C(=O)[C@@H](C(C)C)NC(=O)[C@H](CC(C)C)N(C)C(=O)[C@H](C)N(C)C1=O` [DP-615] (L[NMeA][NMeL][dV][NMeF]F[NMeL][Sar][NMeV]TD-Piperidide; lactam N-11), with 42 µL/min/mg; and `CC(C)C[C@@H]1NC(=O)[C@H](CC(C)C)N(C)C(=O)[C@H](C)N(C)C(=O)[C@H](Cc2ccccc2)NC(=O)C[C@@H](C(=O)N2CCCCC2)NC(=O)[C@H]([C@@H](C)O)NC(=O)[C@H](C(C)C)N(C)C(=O)CN(C)C(=O)[C@H](CC(C)C)N(C)C(=O)[C@@H](C(C)C)NC(=O)[C@H](Cc2ccccc2)N(C)C1=O` [DP-616] (F[NMeA][NMeL]L[NMeF][dV][NMeL][Sar][NMeV]TD-Piperidide; lactam N-11), with 69 µL/min/mg.
The same measure, in the same setting: as for `CC(C)C[C@@H]1NC(=O)[C@H](CC(C)C)N(C)C(=O)[C@H](C)N(C)C(=O)[C@@H](C(C)C)NC(=O)C[C@@H](C(=O)N2CCCCC2)NC(=O)[C@H]([C@@H](C)O)NC(=O)[C@H](C)N(C)C(=O)CN(C)C(=O)[C@H](CC(C)C)N(C)C(=O)[C@H](Cc2c[nH]c3ccccc23)NC(=O)[C@H](Cc2ccccc2)N(C)C1=O` [DP-622] ([dV][NMeA][NMeL]L[NMeF]W[NMeL][Sar][NMeA]TD-Piperidide; lactam N-11), the figure is 36 µL/min/mg; as for `CC(C)C[C@H]1C(=O)N(C)CC(=O)N(C)[C@@H](C)C(=O)N[C@@H]([C@@H](C)O)C(=O)N[C@H](C(=O)N2CCCCC2)CC(=O)N[C@H](C(C)C)C(=O)N(C)[C@@H](C)C(=O)N(C)[C@@H](CC(C)C)C(=O)N[C@@H](Cc2c[nH]c3ccccc23)C(=O)N(C)[C@@H](Cc2ccccc2)C(=O)N[C@@H](Cc2ccccc2)C(=O)N1C` [DP-623] ([dV][NMeA][NMeL]W[NMeF]F[NMeL][Sar][NMeA]TD-Piperidide; lactam N-11), 16 µL/min/mg; as for `C=CC[C@@H]1NC(=O)[C@H](CC(C)C)N(C)C(=O)[C@H](C)N(C)C(=O)[C@@H](C(C)C)NC(=O)C[C@@H](C(=O)N2CCCCC2)NC(=O)[C@H]([C@@H](C)O)NC(=O)[C@H](CC(C)C)N(C)C(=O)[C@H](C)N(C)C(=O)[C@H](CC(C)C)N(C)C(=O)[C@H](Cc2ccccc2)NC(=O)[C@H](Cc2ccccc2)N(C)C1=O` [DP-628] ([dV][NMeA][NMeL][AllylGly][NMeF]F[NMeL][NMeA][NMeL]TD-Piperidide; lactam N-11), 36 µL/min/mg.
On to `CC(C)C[C@H]1C(=O)N(C)CC(=O)N(C)[C@@H](C)C(=O)N[C@@H]([C@@H](C)O)C(=O)N[C@H](C(=O)N2CCCCC2)CC(=O)N[C@H](C(C)C)C(=O)N(C)[C@@H](C)C(=O)N(C)[C@@H](CC(C)C)C(=O)N[C@@H](CC#N)C(=O)N(C)[C@@H](Cc2ccccc2)C(=O)N[C@@H](Cc2ccccc2)C(=O)N1C` [DP-629] ([dV][NMeA][NMeL][Ala(CN)][NMeF]F[NMeL][Sar][NMeA]TD-Piperidide; lactam N-11), for which the microsomal CLint at 1 uM stood at 16 µL/min/mg.
Same read-out and setting: then `CC(C)C[C@@H]1NC(=O)[C@H](CC(C)C)N(C)C(=O)[C@H](C)N(C)C(=O)[C@@H](C(C)C)NC(=O)C[C@@H](C(=O)N2CCCCC2)NC(=O)[C@H]([C@@H](C)O)NC(=O)[C@H](Cc2ccccc2)N(C)C(=O)[C@H](C)N(C)C(=O)[C@H](CC(C)C)N(C)C(=O)[C@H](CC#N)NC(=O)[C@H](Cc2ccccc2)N(C)C1=O` [DP-630] ([dV][NMeA][NMeL]L[NMeF][Ala(CN)][NMeL][NMeA][NMeF]TD-Piperidide; lactam N-11), with 34 µL/min/mg.
Still for that read-out and setting: then `CC[C@H](C)[C@H]1C(=O)N[C@@H]([C@@H](C)O)C(=O)N(C)CC(=O)N(C)[C@@H](CC(C)C)C(=O)N[C@H](C(=O)N2CCCCC2)CC(=O)N(C)[C@H](C)C(=O)N[C@@H](CC(C)C)C(=O)N(C)[C@@H](CC(C)C)C(=O)N(CC)[C@@H](Cc2ccccc2)C(=O)N[C@@H](C)C(=O)N(C)[C@@H](Cc2ccccc2)C(=O)N1C` [DP-633] ([dNMeA]L[NMeL][NEtPhe]A[NMeF][NMeI]T[Sar][NMeL]D-Piperidide; lactam N-11), with 98 µL/min/mg.
`CCCN1CC(=O)N[C@@H](COC(C)(C)C)C(=O)N(C)CC(=O)N(C)[C@@H](CC(C)C)C(=O)N[C@@H]([C@@H](C)O)C(=O)N(C)[C@@H](Cc2ccccc2)C(=O)N(C)[C@@H](CC(C)C)C(=O)N(C)[C@@H]([C@@H](C)CC)C(=O)N(C)[C@@H](C)C(=O)N[C@H](C(=O)N2CCCCC2)CC1=O` [DP-634] ([NPrGly]S(tBu)[Sar][NMeL]T[NMeF][NMeL][NMeI][NMeA]D-Piperidide; lactam N-10): the microsomal CLint at 1 uM was 32 µL/min/mg.
Still for that read-out and setting: then `CCCN1CC(=O)N(C)[C@@H](CC(C)C)C(=O)N[C@H](C(=O)N2CCCCC2)CC(=O)N(C)[C@H](C)C(=O)N[C@@H](CC(C)C)C(=O)N(C)[C@@H](CC(C)C)C(=O)N(C)[C@@H](Cc2ccccc2)C(=O)N[C@@H](C)C(=O)N(C)[C@@H](Cc2ccccc2)C(=O)N(C)[C@@H]([C@@H](C)CC)C(=O)N[C@@H]([C@@H](C)O)C1=O` [DP-635] ([dNMeA]L[NMeL][NMeF]A[NMeF][NMeI]T[NPrGly][NMeL]D-Piperidide; lactam N-11), with 112 µL/min/mg; and `CCN1C(=O)[C@H](CC(C)C)N(C)C(=O)[C@H](CC(C)C)NC(=O)[C@@H](C)N(C)C(=O)C[C@@H](C(=O)N2CCCCC2)NC(=O)[C@H](CC(C)C)N(C)C(=O)CN(C)C(=O)[C@H]([C@@H](C)O)NC(=O)[C@H](CC(C)C)N(C)C(=O)[C@H](Cc2ccccc2)N(C)C(=O)[C@H](C)NC(=O)[C@@H]1Cc1ccccc1` [DP-636] ([dNMeA]L[NMeL][NEtPhe]A[NMeF][NMeL]T[Sar][NMeL]D-Piperidide; lactam N-11), with 73 µL/min/mg; and `CCN1C(=O)[C@H](C)NC(=O)[C@H](Cc2ccccc2)N(C)C(=O)[C@H](CC(C)C)N(C)C(=O)[C@H](CC(C)C)NC(=O)[C@@H](C)N(C)C(=O)C[C@@H](C(=O)N2CCCCC2)NC(=O)[C@H](CC(C)C)N(C)C(=O)CN(C)C(=O)[C@H]([C@@H](C)O)NC(=O)[C@H](CC(C)C)N(C)C(=O)[C@@H]1Cc1ccccc1` [DP-637] ([dNMeA]L[NMeL][NMeF]A[NEtPhe][NMeL]T[Sar][NMeL]D-Piperidide; lactam N-11), with 56 µL/min/mg.
The same measure, in the same setting: as for `CC[C@H](C)[C@H]1C(=O)N(C)[C@@H](CC(C)C)C(=O)N[C@H](C(=O)N2CCCCC2)CC(=O)N(C)CC(=O)N[C@@H](CC(C)C)C(=O)N[C@@H]([C@@H](C)O)C(=O)N(C)CC(=O)N(C)[C@@H](Cc2ccccc2)C(=O)N[C@@H](C)C(=O)N(CC)[C@@H](Cc2ccccc2)C(=O)N[C@@H](CC(C)C)C(=O)N1C` [DP-638] ([Sar]LT[Sar][NMeF]A[NEtPhe]L[NMeI][NMeL]D-Piperidide; lactam N-11), the figure is 47 µL/min/mg; as for `CC[C@H](C)[C@@H]1NC(=O)[C@H](Cc2ccccc2)N(C)C(=O)[C@@H](C)NC(=O)C[C@@H](C(=O)N2CCCCC2)NC(=O)[C@H](C(C)C)NC(=O)CN(C)C(=O)[C@H]([C@@H](C)O)NC1=O` [DP-674] ([dA][NMeF]IT[Sar]VD-Piperidide; lactam N-7), 10 µL/min/mg.
Same read-out and setting: then `CC[C@H](C)[C@@H]1NC(=O)[C@H](CC(C)C)N(C)C(=O)CN(C)C(=O)[C@H](Cc2ccccc2)NC(=O)[C@H](C(C)C)N(C)C(=O)[C@H](C)N(C)C(=O)[C@H]([C@@H](C)O)NC(=O)[C@H](C)N(C)C(=O)C[C@@H](C(=O)N2CCCCC2)NC(=O)[C@H](C)NC1=O` [DP-675] ([NMeA]T[NMeA][NMeV]F[Sar][NMeL]IAD-Piperidide; lactam N-10), with 22 µL/min/mg.
For `CC[C@H](C)[C@@H]1NC(=O)[C@H](Cc2ccccc2)N(C)C(=O)[C@H](CCc2ccccc2)NC(=O)[C@H](C(C)C)N(C)C(=O)[C@H](CC(C)C)N(C)C(=O)[C@H](CC(C)C)NC(=O)[C@@H](C)NC(=O)C[C@@H](C(=O)N2CCCCC2)NC(=O)[C@H]([C@@H](C)O)NC(=O)[C@H](C)NC(=O)[C@H](C)N(C)C1=O` [DP-730] ([dA]L[NMeL][NMeV][hPhe][NMeF]I[NMeA]ATD-Piperidide; lactam N-11), the microsomal CLint at 1 uM is 50 µL/min/mg.
